{"source": "paper PMC7481482", "about": "“Development of Anthraquinone Derivatives as Ectonucleoside Triphosphate Diphosphohydrolase (NTPDase) Inhibitors With Selectivity for NTPDase2 and NTPDase3” (Frontiers in Pharmacology, 2020)", "key": {"rat CD73": {"system": "rat CD73", "design": "method as in Baqi et al., 2010", "conditions": "ref Baqi et al., 2010; cited from earlier work"}, "human NTPDase3": {"target": "T1, human NTPDase3 (Homo sapiens, UniProt O75355)", "T1 construct": "expressed in transfected cells; host or cells: COS-7 cells (membrane preparation)", "T1 sequence (O75355 1-529)": "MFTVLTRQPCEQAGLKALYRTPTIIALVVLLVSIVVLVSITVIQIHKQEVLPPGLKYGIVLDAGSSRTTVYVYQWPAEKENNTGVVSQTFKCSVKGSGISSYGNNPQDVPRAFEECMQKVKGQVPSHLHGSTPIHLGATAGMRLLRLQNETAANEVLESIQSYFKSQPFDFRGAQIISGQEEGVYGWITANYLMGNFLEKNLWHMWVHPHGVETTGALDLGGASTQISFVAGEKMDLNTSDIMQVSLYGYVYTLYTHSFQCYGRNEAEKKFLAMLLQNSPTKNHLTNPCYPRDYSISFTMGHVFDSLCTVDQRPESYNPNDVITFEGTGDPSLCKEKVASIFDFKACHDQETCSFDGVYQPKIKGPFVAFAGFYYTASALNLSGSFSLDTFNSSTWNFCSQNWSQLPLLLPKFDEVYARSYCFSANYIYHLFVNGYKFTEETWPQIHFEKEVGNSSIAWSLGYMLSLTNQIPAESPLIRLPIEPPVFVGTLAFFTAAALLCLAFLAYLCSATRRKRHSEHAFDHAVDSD", "experiment": "Malachite green assay, human NTPDase3", "type": "biochemical", "conditions": "2 μM compound; 100 µM ATP; COS-7 membrane preparation; read-out: % inhibition at 2 μM concentration, NTPDase3", "outline": "(§1)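 COS-7 membranes expressing each NTPDase were preincubated with compound for 5 min at 37 °C, pH 7.4 HEPES buffer with 2 mM CaCl2/1 mM MgCl2. ATP was 50 µM for NTPDase1 and 100 µM for -2, -3, -8; reaction ran 15 min at 37 °C. Released phosphate read by malachite green at 600 nm; screen at 2 µM, IC50 over 0.03–30 µM in 2% DMSO.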"}, "human NTPDase1": {"target": "T2, human NTPDase1 (Homo sapiens, UniProt P49961)", "T2 construct": "expressed in transfected cells; host or cells: COS-7 cells (membrane preparation)", "T2 sequence (P49961 1-510)": "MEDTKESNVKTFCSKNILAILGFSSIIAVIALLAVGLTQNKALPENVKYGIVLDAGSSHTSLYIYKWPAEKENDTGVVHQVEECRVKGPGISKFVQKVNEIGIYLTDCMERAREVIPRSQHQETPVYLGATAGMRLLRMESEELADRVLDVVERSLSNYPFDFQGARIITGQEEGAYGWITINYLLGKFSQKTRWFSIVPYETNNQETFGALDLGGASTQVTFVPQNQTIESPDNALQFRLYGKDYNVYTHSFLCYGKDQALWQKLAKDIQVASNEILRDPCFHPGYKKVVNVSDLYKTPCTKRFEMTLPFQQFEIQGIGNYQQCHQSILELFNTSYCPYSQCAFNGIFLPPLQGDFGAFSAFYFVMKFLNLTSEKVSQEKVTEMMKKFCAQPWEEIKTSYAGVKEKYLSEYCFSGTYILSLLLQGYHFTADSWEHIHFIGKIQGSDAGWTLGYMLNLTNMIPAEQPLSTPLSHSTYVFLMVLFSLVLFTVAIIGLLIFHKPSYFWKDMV", "experiment": "Malachite green assay, human NTPDase1", "type": "biochemical", "conditions": "2 μM compound; 50 µM ATP; COS-7 membrane preparation; read-out: % inhibition at 2 μM concentration, NTPDase1", "outline": "as §1"}}, "data": [{"smiles": "Nc1c(S(=O)(=O)O)cc(Nc2cccc3ccccc23)c2c1C(=O)c1ccccc1C2=O", "note": "[Compound 15]", "values": [{"measurement": "IC50", "setting": "rat CD73", "value": 530, "unit": "nM"}, {"measurement": "inhibition at 2 µM", "setting": "human NTPDase3", "value": -4, "unit": "%"}, {"measurement": "inhibition at 2 µM", "setting": "human NTPDase1", "value": -19, "unit": "%"}]}]}
